Laboratory results: the NIST ThermoML archive (doi:10.1021/acs.jced.6b00781)
± gives the expanded uncertainty stated by the source.

Settings: Crystal

SMILES | Normal melting temperature (DTA) [°C] | Normal melting temperature (visual observation) [°C]
Oc1ccc2ccccc2c1 [2-hydroxynaphthalene] | 123.83 ± 2 | –
Oc1cccc2ccccc12 [1-naphthol] | – | 97.39 ± 2
